Source: patent publication US11225507B2, “Conformation switchable antimicrobial peptides and methods of using the same” (priority 2017, dated 2022)
Where two headings read alike, the source gives them in different places.

Tests used:
[1] = Circular dichroism (CD) secondary structure of polypeptides at different pH; assay type: physicochemical
Method: The secondary structure of the polypeptides at different pH value was then investigated by circular dichroism (CD). […] Distortion of helical conformation was noted when the pH was adjusted back to neutral (FIG. 1C).
The MALLS detector was calibrated using pure toluene and can be used for the determination of the absolute molecular weights (MWs). The MWs of polymers were determined based on the dn/dc value of each polymer sample calculated offline by using the internal calibration system processed by the ASTRA V software (version 5.1.7.3, Wyatt Technology, Santa Barbara, Calif., USA). Circular dichroism (CD) measurements were carried out on a JASCO J-815 CD spectrometer. The polymer samples were prepared at concentrations of 4.4 μM. The solution was placed in a quartz cell with a path length of 0.10 cm. The zeta-potential of polypeptides was evaluated by Malvern Zetasizer. Infrared spectra were recorded on a Perkin Elmer 100 serial FTIR spectrophotometer calibrated with polystyrene film. Lyophilization was performed on a FreeZonelyophilizer (Labconco, Kansas City, Mo., USA). UV light was generated from an OmiCure S1000 UV lamp (EXFO, Mississauga, Canada).

E. coli MG1655 = experiment: Minimal inhibition concentration (MIC), E. coli MG1655; assay type: cell-based, Escherichia coli; details: pH 7.4
Method: Minimal inhibition concentration (MIC). Gram-negative bacteria, DH5α and MG1655 (E. coli) were grown in LB medium at 37° C. For determination of the MIC, polypeptides were dissolved in media using serial dilutions from a stock solution. Into each well of a 96-well plate was added 200 μL of each concentration and 2 μL of bacteria (1×10^8 CFU (colony forming units)) in medium. The plate was incubated at 37° C. The optical density readings of microorganism solutions were measured after 24 h incubation. The MIC was considered as the lowest concentration of peptide where no visual growth of bacteria was detected.

[2] = Liposome dye leakage assay (ANTS/DPX efflux)
Method: Liposome dye leakage assay. ANTS (12.5 mM) and DPX (45 mM) were dissolved in Tris buffer (pH=7.4). To a clean round-bottom flask, appropriate volumes of lipid stocks were added to make up 1 mL of CHCl3 (3:1 POPE (1-palmitoyl-2-oleoyl-sn-glycero-3-phosphoethanolamine)/POPG (1-palmitoyl-2-oleoyl-sn-glycero-3-phospho-(1′-rac-glycerol) (sodium salt)) vesicles, POPE (130 μL, 25 mg/mL CHCl3) and POPG (115 μL, 10 mg/mL CHCl3) were used). The solvent was removed by a stream of nitrogen gas to obtain a thin lipid film, which was then hydrated by 1 mL of ANTS/DPX solution. The mixture was left to hydrate for 1 h, after which it was subjected to 10 freeze-thaw cycles (using dry ice/acetone to freeze and warm water to thaw). The suspension was extruded 20 times through a polycarbonate membrane with 400 nm pore diameter. The excess dye was removed using Sephadex G-50 column as the eluent. The dye-filled vesicle fractions were diluted 200 times with Tris buffer. This suspension (90 μL) was subsequently mixed with polypeptide stock solutions (10 μL) at various pH (pH 7.4 or 4.0) on a 96-well black microplate (Greiner, flat bottom). Tris buffer (10 μL, pH 7.4 or 4.0) and Triton-X (0.1% v/v, 10 μL, pH 7.4 or 4.0) were employed as the negative and positive controls at corresponding pH, respectively. After 30 min, the fluorescence intensity in each well was recorded using the microplate reader with excitation and emission wavelengths of 380 and 520 nm, respectively. The percentage of leaked […] dye in each well was determined as follows: leakage (%)=[(F−F0)/(FTX−F0)]×100%, where F is the fluorescence intensity recorded in the well, F0 is the intensity in the negative control well, and FTX is the intensity in the positive control well.

H. pylori SS1 = experiment: SEM analysis of bacterial morphology; assay type: cell-based, Helicobacter pylori; details: 30 min
Method: SEM analysis. SS1 bacterial cells grown in BB with the supplement of 10% FBS under pH 7.4 or 4.0 with or without polypeptides (2.2 μM) treatment were performed using a similar protocol as killing kinetics measurements but with a 30 min incubation time. All the samples were collected into a microfuge tube and pelleted at 4000 rpm for 5 min, and then washed twice with phosphate-buffered saline. Subsequently, bacteria were fixed with paraformaldehyde solution (4%) for 1 h before proceeding, followed by washing with DI water. Dehydration was performed with a series of graded ethanol solution (10%, 25%, 50%, 75%, 95%, and 100%). The dehydrated samples were dried under vacuum overnight before being mounted on carbon tape and coated with gold-platinum for imaging using a Hitachi S-4700 High Solution SEM (Japan).

commensal bacteria = experiment: Killing effect against commensal bacteria in vivo (16S rRNA qPCR); details: mice, daily gavage for 3 consecutive days
Method: The bacterial load was determined by quantitative real-time PCR using a protocol modified from Stefka et al., and Buffie et al. (Stefka et al. (2014) Commensal bacteria protect against food allergen sensitization. Proc Natl Acad Sci USA 111:13145-13150; Buffie et al. (2012) Profound alterations of intestinal microbiota following a single dose of clindamycin results in sustained susceptibility to Clostridium difficile-induced colitis. Infect Immun 80:62-73). Fecal DNA was extracted as for sequencing, and bacterial load was quantified against a standard curve derived from apCR4TOPO-TA vector containing a nearly full-length copy of the 16S rRNA gene from a member of Porphyromonadaceae. Bacterial DNA was amplified with universal primers 8F and 338R using the iQ SYBR greensupermix (Bio-RadLifeScience) and the StepOne Plus system (AppliedBiosystems). The results were normalized to ileal content/fecal weight.

[3] = mouse, in vivo
Method: In vivo and ex vivo biodistribution of Cy5-PL2. Cy5-PL2 (2.6 μmol/kg), Cy5-PDL2 (2.6 μmol/kg) and PBS were administrated by oral gavage. Mice were placed on the sample stage equipped with anesthesia input and output ports, and imaged by the Bruker Xtreme In-Vivo Fluorescence Imaging System at 1 h, 2 h, 4 h, 7 h, and 24 h post injection (p.i.). The excitation filter was set at 630 nm and the emission filter was set at 700 nm. Collected images were analyzed by the Bruker molecular imaging software. Stomach, intestines, liver, lung, kidneys, heart, and spleen were harvested at 4 h or 24 h p.i. of Cy5-PL2 and imaged ex vivo using the Bruker Xtreme In-Vivo Imaging System. Ex vivo images were quantified by measuring FI at selected region of interest (ROI). All values were expressed as means±standard deviation (n=3). […] The other half of the stomach were placed into separate glass tubes containing 2 mL of lysis buffer (1% SDS, 100 10 mM Tris.HCl, pH 7.4, 1 tablet of EDTA-free protease inhibitor), homogenized, and incubated at 4° C. for 2 h. The lysates were then centrifuged at 3000 rcf for 10 min to remove the insoluble cell debris, and measured on a fluorescence spectrometer to determine the amount of Cy5 retained in the tissues. The amount of Cy5 was calculated based on the standard curve of Cy5 FI and normalized to percentage of injected dose (% I.D.) per gram tissue.

With (PGA)18-r-(PHLG-MHH)20 [PL2] the “secondary structure (CD)” value ([1]; pH≤4.2) was “typical helical conformation”, the “secondary structure (CD)” value ([1]; pH≥5.1) was “random coiled conformation” and the “minimal inhibitory concentration (MIC)” value (E. coli MG1655) was “higher than 70 μM”. The “dye leakage from anionic liposomes” value ([2]; pH 4.0) was “great dye leakage”, the “dye leakage from anionic liposomes” value ([2]; pH 7.4) was “minimal dye leakage” and the “bacterial membrane/morphology by SEM” value (H. pylori SS1; pH 4.0, 2.2 μM) was “dramatic damage of the bacterial membranes”. The “bacterial membrane/morphology by SEM” value (H. pylori SS1; pH 7.4, 2.2 μM) was “minimally affected the bacterial morphology”, the “killing of commensal bacteria in the feces” value (commensal bacteria) was “did not cause undesired killing of the commensal bacteria” and the “killing of commensal bacteria in the ileal contents” value (commensal bacteria) was “did not cause undesired killing of the commensal bacteria”. It also gave a gastric retention [3] of roughly 6% and a gastric retention ([3]; po, 2.6 umol/kg, 4 h) of roughly 40 % ID/g.
